From patent US7169932B2 (priority 2001, dated 2007)

Legend:
[1] = tested on: HIV-1; assay: Cytopathic Effect (CPE) Inhibition Assay (XTT dye reduction); format: cell-based; conditions: Human immunodeficiency virus 1, 144 h, read-out: Ave CPE EC50 (mM)
Protocol: T-cell lines, CEM-SS, and MT-2, and viruses HIV-1 RF and HIV-1 NL4–3 (pNL4–3) were obtained from the National Institutes of Health (AIDS Research and Reference Reagent Program, Bethesda, Md.).
The ability of compounds to protect cells against HIV infection was measured by the […] dye reduction method, essentially as described (See Pauwels, R. Balzarini, J. Baba, M. Snoeck, R. Schols, D. Herdewijn, P. Desmyter, J. and De Clercq, E. 1988, “Rapid and automated tetrazolium-based colorimetric assay for the detection of anti-HIV compounds,”. J Virol Methods., 20: 309–321 and Weislow, O. S. Kiser, R. Fine, D. L. Bader, J. Shoemaker, R. H. and Boyd, M. R. 1989. “New soluble-formazan assay for HIV-1 cytopathic effects: application to high-flux screening of synthetic and natural products for AIDS-antiviral activity”. J. Natl. Cancer Inst. 81:577–586). Subject cells were infected with test virus at an moi of 0.025 to 0.819 or mock infected with medium only and added at 2×10^4 cells per well into 96 well plates containing half-log dilutions of test compounds. Six days later, 50 μl of XTT (1 mg/ml XTT tetrazolium, […] phenazine methosulfate) was added to the wells and the plate was reincubated for four hours. Viability, as determined by the amount of XTT formazan produced, was quantified spectrophotometrically by absorbance at 450 nm. Data from CPE assays were expressed as the percent of formazan produced in compound-treated cells compared to formazan produced in wells of uninfected, compound-free cells. The fifty percent effective concentration (EC50) was calculated as the concentration of compound that effected an increase in the percentage of formazan production in infected, compound-treated cells to 50% of that produced by uninfected, compound-free cells. The 50% cytotoxicity concentration (CC50) was calculated as the concentration of compound that decreased the percentage of formazan produced in uninfected, compound-treated cells to 50% of that produced in uninfected, compound-free cells. The therapeutic index was calculated by dividing the cytotoxicity (CC50) by the antiviral activity (EC50).

[2] = molecular target: T1, HIV-1 protease (Q7S) (Human immunodeficiency virus type 1 group M subtype B, UniProt P04585, Q495S); assay: HIV-1 Protease RET Assay; format: biochemical; conditions: Ave. Ki (nM), RET assay, Q7S enzyme, pH 4.8, 37 C
T1 construct: made in house
Summary of the method: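 Ki values came from a RET assay on refolded Q7S protease (2 nM active dimer) cleaving RE(EDANS)SQNYPIVQK(DABCYL)R at 5 μM, read at ex 340/em 490 nm. Reactions ran 12 min at 37 C in 0.1M sodium acetate pH 4.8, 1M NaCl, 5 mM DTT, 10% DMSO; curves were fit with the Morrison tight-binding equation.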

Row | SMILES | EC50 [1] | Ki [2]
1 | Cc1c(O)cccc1C(=O)N[C@@H](Cc1ccccc1)[C@H](O)C(=O)N1CSC(C)(C)[C@H]1C(=O)NCCCl [Example A49, (R)-3-[(2S,3S)-2-Hydroxy-3-(3-hydroxy-2-methyl-benzoylamino)-4-phenyl-butyryl]-5,5-dimethyl-thiazolidine-4-carboxylic acid (2-chloro-ethyl)-amide] | 0.00013 mM | 1.2 nM
2 | Cc1ccccc1CN(CCO)C(=O)[C@H]1N(C(=O)[C@@H](O)[C@H](Cc2ccccc2)NC(=O)c2cccc(O)c2C)CSC1(C)C [Example A50, (R)-3-((2S,3S)-2-Hydroxy-3-{[1-(3-hydroxy-2-methyl-phenyl)-methanoyl]-amino}-4-phenyl-butanoyl)-5,5-dimethyl-thiazolidine-4-carboxylic acid (2-hydroxy-ethyl)-(2-methyl-benzyl)-amide] | 0.000224 mM | 0.26 nM
3 | Cc1ccccc1CNC(=O)[C@H]1N(C(=O)[C@@H](O)[C@H](Cc2ccccc2)NC(=O)c2ccon2)CSC1(C)C [Example B3, Isoxazole-3-carboxylic acid {(1S,2S)-1-benzyl-3-[(R)-5,5-dimethyl-4-(2-methyl-benzylcarbamoyl)-thiazolidin-3-yl]-2-hydroxy-3-oxo-propyl}-amide] | 0.000409 mM | 4 nM
4 | Cc1ccccc1CNC(=O)[C@H]1N(C(=O)[C@@H](O)[C@H](Cc2ccccc2)NC(=O)c2cc(Cl)on2)CSC1(C)C [Example B4, 5-Chloro-isoxazole-3-carboxylic acid {(1S,2S)-1-benzyl-3-[(R)-5,5-dimethyl-4-(2-methyl-benzylcarbamoyl)-thiazolidin-3-yl]-2-hydroxy-3-oxo-propyl}-amide] | 0.000551 mM | 1.7 nM
5 | Cc1ccccc1CNC(=O)[C@H]1N(C(=O)[C@@H](O)[C@H](Cc2ccccc2)NC(=O)c2c(C)noc2C)CSC1(C)C [Example B10, 3,5-Dimethyl-isoxazole-4-carboxylic acid {(1S,2S)-1-benzyl-3-[(R)-5,5-dimethyl-4-(2-methyl-benzylcarbamoyl)-thiazolidin-3-yl]-2-hydroxy-3-oxo-propyl}-amide] | 0.0011 mM | < 0.1 nM
6 | Cc1ccccc1CNC(=O)[C@H]1N(C(=O)[C@@H](O)[C@H](Cc2ccccc2)NC(=O)c2cccn2C)CSC1(C)C [Example B12, (R)-3-{(2S,3S)-2-Hydroxy-3-[(1-methyl-1H-pyrrole-2-carbonyl)-amino]-4-phenyl-butyryl}-5,5-dimethyl-thiazolidine-4-carboxylic acid 2-methyl-benzylamide] | 0.0014 mM | 0.45 nM
7 | Cc1ccccc1CNC(=O)[C@H]1N(C(=O)[C@@H](O)[C@H](Cc2ccccc2)NC(=O)c2c(C)nn(C)c2Cl)CSC1(C)C [Example B14, 3-{(S)-3-[(5-Chloro-1,3-dimethyl-1H-pyrazole-4-carbonyl)-amino]-2-hydroxy-4-phenyl-butyryl}-5,5-dimethyl-thiazolidine-4-carboxylic acid 2-methyl-benzylamide] | 0.00305 mM | 3.7 nM
8 | Cc1ccccc1CNC(=O)[C@H]1N(C(=O)[C@@H](O)[C@H](Cc2ccccc2)NC(=O)c2sc(N)nc2C)CSC1(C)C [Example B15, 2-Amino-4-methyl-thiazole-5-carboxylic acid {(S)-1-benzyl-3-[5,5-dimethyl-4-(2-methyl-benzylcarbamoyl)-thiazolidin-3-yl]-2-hydroxy-3-oxo-propyl}-amide] | 0.00109 mM | 2 nM
9 | Cc1ccccc1CNC(=O)C1N(C(=O)C(O)C(Cc2ccccc2)NC(=O)C2=NNC(=O)CC2)CSC1(C)C (stereo not shown) [Example B18, 6-Oxo-1,4,5,6-tetrahydro-pyridazine-3-carboxylic acid {1-benzyl-3-[5,5-dimethyl-4-(2-methyl-benzylcarbamoyl)-thiazolidin-3-yl]-2-hydroxy-3-oxo-propyl}-amide] | 0.000457 mM | 0.29 nM
10 | C=CCNC(=O)[C@H]1N(C(=O)[C@@H](O)[C@H](Cc2ccccc2)NC(=O)c2ccc(C)c(O)c2C)CSC1(C)C [Example B20, (R)-3-((2S,3S)-2-Hydroxy-3-{[1-(3-hydroxy-2,4-dimethyl-phenyl)-methanoyl]-amino}-4-phenyl-butanoyl)-5,5-dimethyl-thiazolidine-4-carboxylic acid allylamide] | 0.000427 mM | 2.1 nM
11 | C#CCNC(=O)[C@H]1N(C(=O)[C@@H](O)[C@H](Cc2ccccc2)NC(=O)c2ccc(C)c(O)c2C)CSC1(C)C [Example B21, 3-(2-Hydroxy-3-{[1-(3-hydroxy-2,4-dimethyl-phenyl)-methyanoyl]-amino}-4-phenyl-butznoyl)-5,5-dimethyl-thiazolidine-4-carboxylic acid prop-2-ynylamide] | 0.000598 mM | 4.6 nM
12 | Cn1cccc1C(=O)N[C@@H](Cc1ccccc1)[C@H](O)C(=O)N1CSC(C)(C)[C@H]1C(=O)NCc1ccccc1Cl [Example B22, 3-{2-Hydroxy-3-[(1-methyl-1H-pyrrole-2-carbonyl)-amino]-4-phenyl-butyryl}-5,5-dimethyl-thiazolidine-4-carboxylic acid 2-chloro-benzylamide] | 0.00161 mM | 1.8 nM
13 | Cc1noc(C)c1C(=O)N[C@@H](Cc1ccccc1)[C@H](O)C(=O)N1CSC(C)(C)[C@H]1C(=O)NCc1ccccc1Cl [Example B23, 3,5-Dimethyl-isoxazole-4-carboxylic acid {1-benzyl-3-[4-(2-chloro-benzylcarbamoyl)-5,5-dimethyl-thiazolidin-3-yl]-2-hydroxy-3-oxo-propyl}-amide] | 0.00142 mM | 0.42 nM
14 | Cn1cccc1C(=O)N[C@@H](Cc1ccccc1)[C@H](O)C(=O)N1CSC(C)(C)[C@H]1C(=O)NCc1c(F)cccc1F [Example B24, 3-{2-Hydroxy-3-[(1-methyl-1H-pyrrole-2-carbonyl)-amino]-4-phenyl-butyryl}-5,5-dimethyl-thiazolidine-4-carboxylic acid 2,6-difluoro-benzylamide] | 0.00232 mM | 5.5 nM
15 | Cc1noc(C)c1C(=O)NC(Cc1ccccc1)C(O)C(=O)N1CSC(C)(C)C1C(=O)NCc1c(F)cccc1F (stereo not shown) [Example B25, 3,5-Dimethyl-isoxazole-4-carboxylic acid {1-benzyl-3-[4-(2,6-difluoro-benzylcarbamyl)-5,5-dimethyl-thiazolidin-3-yl]-2-hydroxy-3-oxo-propyl}-amide] | 0.00179 mM | 2.7 nM
16 | Cn1cccc1C(=O)N[C@@H](Cc1ccccc1)[C@H](O)C(=O)N1CSC(C)(C)[C@H]1C(=O)NCc1ccccc1C(F)(F)F [Example B26, 3-{2-Hydroxy-3-[(1-methyl-1H-pyrrole-2-carbonyl)-amino]-4-phenyl-butyryl}-5,5-dimethyl-thiazolidine-4-carboxylic acid 2-trifluoromethyl-benzylamide] | 0.00171 mM | 2.9 nM
17 | CCCNC(=O)[C@H]1N(C(=O)[C@@H](O)[C@H](Cc2ccccc2)NC(=O)c2ccccc2C)CSC1(C)C [Example B30, (R)-3-{(2S,3S)-2-Hydroxy-4-phenyl-3-[(1-o-tolyl-methanoyl)-amino]-butanoyl}-5,5-dimethyl-thiazolidine-4-carboxylic acid propylamide] | 0.00123 mM | 1.1 nM
18 | CCCNC(=O)[C@H]1N(C(=O)[C@@H](O)[C@H](Cc2ccccc2)NC(=O)c2cccc(F)c2C)CSC1(C)C [Example B31, (R)-3-((2S,3S)-3-{[1-(3-Fluoro-2-methyl-phenyl)-methanoyl]-amino}-2-hydroxy-4-phenyl-butanoyl)-5,5-dimethyl-thiazolidine-4-carboxylic acid propylamide] | 0.00132 mM | 1.5 nM
19 | C=CCNC(=O)[C@H]1N(C(=O)[C@@H](O)[C@H](Cc2ccccc2)NC(=O)c2cccc(F)c2C)CSC1(C)C [Example B33, (R)-3-((2S,3S)-3-{[1-(3-Fluoro-2-methyl-phenyl)-methanoyl]-amino}-2-hydroxy-4-phenyl-butanoyl)-5,5-dimethyl-thiazolidine-4-carboxylic acid allylamide] | 0.00129 mM | 1.2 nM
20 | Cc1ccccc1CNC(=O)[C@H]1N(C(=O)[C@@H](O)[C@H](Cc2ccccc2)NC(=O)c2cccc(F)c2C)CSC1(C)C [Example B36, (R)-3-((2S,3S)-3-{[1-(3-Fluoro-2-methyl-phenyl)-methanoyl]-amino}-2-hydroxy-4-phenyl-butanoyl)-5,5-dimethyl-thiazolidine-4-carboxylic acid 2-methyl-benzylamide] | 0.000615 mM | < 0.1 nM
